Results taken from PubChem BioAssay AID248 (DTP/NCI, 2004).
Inconclusive results and toxic doses are left out. Rule as the data show it: active = T/C of 150% or more; inactive = T/C below 125%.

Tested on: L1210 leukemia ip in BDF1 mice, survival T/C
Test: NCI In Vivo Anticancer Drug Screen. Data for tumor model L1210 Leukemia (intraperitoneal) in B6D2F1 (BDF1) mice
Conditions: endpoint: mean survival time, higher = longer survival
Procedure, shortened: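 Value reflects the ratio of survival in compound-treated mice to survival in vehicle-treated controls, with both groups carrying the same transplanted tumor.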

[1] = dose: 75.0 mg/kg/injection, schedule: Q01DX001 (ip), vehicle: saline
[2] = dose: 100.0 mg/kg/injection, schedule: Q01DX001 (ip), vehicle: other
[3] = dose: 400.0 mg/kg/injection, schedule: Q01DX001 (ip), vehicle: other
[4] = dose: 100.0 mg/kg/injection, schedule: Q01DX009 (ip), vehicle: Klucel (hydroxypropylcellulose) (HPC)
[5] = dose: 100.0 mg/kg/injection, schedule: Q04DX003 (ip), vehicle: Klucel (hydroxypropylcellulose) (HPC)
[6] = dose: 200.0 mg/kg/injection, schedule: Q01DX009 (ip), vehicle: Klucel (hydroxypropylcellulose) (HPC)
[7] = dose: 200.0 mg/kg/injection, schedule: Q04DX003 (ip), vehicle: Klucel (hydroxypropylcellulose) (HPC)
[8] = dose: 400.0 mg/kg/injection, schedule: Q04DX003 (ip), vehicle: Klucel (hydroxypropylcellulose) (HPC)
[9] = dose: 100.0 mg/kg/injection, schedule: Q01DX001 (ip), vehicle: saline
[10] = dose: 100.0 mg/kg/injection, schedule: Q04DX003 (ip), vehicle: saline
[11] = dose: 200.0 mg/kg/injection, schedule: Q01DX001 (ip), vehicle: saline
[12] = dose: 75.0 mg/kg/injection, schedule: Q01DX009 (ip), vehicle: Klucel (hydroxypropylcellulose) (HPC)
[13] = dose: 150.0 mg/kg/injection, schedule: Q01DX009 (ip), vehicle: Klucel (hydroxypropylcellulose) (HPC)
[14] = dose: 300.0 mg/kg/injection, schedule: Q01DX009 (ip), vehicle: Klucel (hydroxypropylcellulose) (HPC)
[15] = dose: 25.0 mg/kg/injection, schedule: Q04DX003 (ip), vehicle: Klucel (hydroxypropylcellulose) (HPC)
[16] = dose: 50.0 mg/kg/injection, schedule: Q04DX003 (ip), vehicle: Klucel (hydroxypropylcellulose) (HPC)
[17] = dose: 100.0 mg/kg/injection, schedule: Q04DX003 (ip), vehicle: saline with Tween-80
[18] = dose: 200.0 mg/kg/injection, schedule: Q04DX003 (ip), vehicle: saline with Tween-80
[19] = dose: 400.0 mg/kg/injection, schedule: Q04DX003 (ip), vehicle: saline with Tween-80

Measured: T/C

O=C(c1ccccc1)c1ccc(NC(=S)Nc2ccc(C(=O)c3ccccc3)cc2)cc1
inactive: dose: 20.0 mg/kg/injection, schedule: Q01DX005 (ip), vehicle: saline with Tween-80 97 % of control | dose: 40.0 mg/kg/injection, schedule: Q01DX005 (ip), vehicle: saline with Tween-80 92 % of control | dose: 80.0 mg/kg/injection, schedule: Q01DX005 (ip), vehicle: saline with Tween-80 92 % of control | dose: 160.0 mg/kg/injection, schedule: Q01DX005 (ip), vehicle: saline with Tween-80 95 % of control | dose: 320.0 mg/kg/injection, schedule: Q01DX005 (ip), vehicle: saline with Tween-80 97 % of control

N#CCCC(=O)c1cccnc1
inactive: dose: 100.0 mg/kg/injection, schedule: Q04DX002 (ip), vehicle: saline 108 % of control | dose: 200.0 mg/kg/injection, schedule: Q04DX002 (ip), vehicle: saline 90 % of control | dose: 400.0 mg/kg/injection, schedule: Q04DX002 (ip), vehicle: saline 93 % of control

O=Nc1ccc(C=C2C(=O)C=CC2=O)cc1
inactive: [1] 100 % of control | dose: 150.0 mg/kg/injection, schedule: Q01DX001 (ip), vehicle: saline 94 % of control | dose: 300.0 mg/kg/injection, schedule: Q01DX001 (ip), vehicle: saline 101 % of control

ClCC1Oc2ccccc2O1
inactive: [2] 101 % of control | [3] 97 % of control

O=C(Nc1ccc2c(c1)C(Br)c1ccccc1-2)C(F)(F)F (stereo not drawn)
inactive: [4] 98 % of control | [5] 97 % of control | [6] 93 % of control | [7] 97 % of control | [8] 97 % of control

O=C(CCl)c1c(O)[n+](Cc2ccccc2)c2ccccn12
inactive: dose: 25.0 mg/kg/injection, schedule: Q04DX003 (ip), vehicle: saline 100 % of control | dose: 50.0 mg/kg/injection, schedule: Q04DX003 (ip), vehicle: saline 96 % of control | [9] 91 % of control | [10] 91 % of control | dose: 150.0 mg/kg/injection, schedule: Q04DX003 (ip), vehicle: saline 97 % of control | [11] 94 % of control | dose: 225.0 mg/kg/injection, schedule: Q04DX003 (ip), vehicle: saline 103 % of control | dose: 335.0 mg/kg/injection, schedule: Q04DX003 (ip), vehicle: saline 106 % of control

O=C(COc1ccc(Cl)cc1)OCCCl
inactive: dose: 87.5 mg/kg/injection, schedule: Q01DX009 (ip), vehicle: other 104 % of control | [5] 95 % of control | dose: 175.0 mg/kg/injection, schedule: Q01DX009 (ip), vehicle: other 98 % of control | [7] 97 % of control | dose: 350.0 mg/kg/injection, schedule: Q01DX009 (ip), vehicle: other 104 % of control | [8] 91 % of control

CC1C(=O)C(C)C(C(=O)O)C1C (stereo not drawn)
inactive: dose: 100.0 mg/kg/injection, schedule: Q04DX002 (ip), vehicle: Klucel (hydroxypropylcellulose) (HPC) 100 % of control | dose: 200.0 mg/kg/injection, schedule: Q04DX002 (ip), vehicle: Klucel (hydroxypropylcellulose) (HPC) 107 % of control | dose: 400.0 mg/kg/injection, schedule: Q04DX002 (ip), vehicle: Klucel (hydroxypropylcellulose) (HPC) 93 % of control

Cc1ccc(/C=C/c2ccccc2)cc1
inactive: [12] 98 % of control | [13] 104 % of control | [14] 103 % of control

CCOC(=O)CCCl
inactive: [12] 94 % of control | dose: 75.0 mg/kg/injection, schedule: Q04DX003 (ip), vehicle: saline 117 % of control | [13] 96 % of control | [14] 97 % of control | dose: 300.0 mg/kg/injection, schedule: Q04DX003 (ip), vehicle: saline 97 % of control

Cc1cccc(N2C(N)=NC(N)=NC2(C)C)c1
inactive: [15] 103 % of control | [16] 124 % of control | [1] 101 % of control

CC1OC1CO (stereo not drawn)
inactive: [17] 96 % of control | [18] 101 % of control | [19] 89 % of control

O=c1[nH]cccc1CC(O)(c1ccccc1)c1ccccc1
inactive: [9] 101 % of control | [11] 103 % of control | dose: 400.0 mg/kg/injection, schedule: Q01DX001 (ip), vehicle: saline 100 % of control

C/C(=N\N=C(/C)c1ccc2ccccc2c1)c1ccc2ccccc2c1
inactive: [17] 94 % of control | [18] 91 % of control

CC(CC(=O)c1ccc(F)cc1)N1CCCCC1 (stereo not drawn)
inactive: dose: 100.0 mg/kg/injection, schedule: Q01DX001 (ip), vehicle: carboxymethylcellulose (CMC) 95 % of control | dose: 200.0 mg/kg/injection, schedule: Q01DX001 (ip), vehicle: carboxymethylcellulose (CMC) 98 % of control

Cn1c(=O)c2c(nc(OCCC3CCCCC3)n2C)n(C)c1=O
inactive: dose: 50.0 mg/kg/injection, schedule: Q01DX001 (ip), vehicle: other 90 % of control | [2] 95 % of control | dose: 200.0 mg/kg/injection, schedule: Q01DX001 (ip), vehicle: other 90 % of control | [3] 93 % of control

O=C(COc1ccc(Cl)c(Cl)c1)Nc1ccc[n+](Cc2ccc(Cl)c(S(=O)(=O)F)c2)c1
inactive: [10] 106 % of control | dose: 200.0 mg/kg/injection, schedule: Q04DX003 (ip), vehicle: saline 94 % of control | dose: 400.0 mg/kg/injection, schedule: Q04DX003 (ip), vehicle: saline 105 % of control

CNC(=S)N/N=C(/C)CCc1c(C)nn(C(=S)NC)c1C
inactive: dose: 5.0 mg/kg/injection, schedule: Q01DX001 (ip), vehicle: carboxymethylcellulose (CMC) 94 % of control | dose: 10.0 mg/kg/injection, schedule: Q01DX001 (ip), vehicle: carboxymethylcellulose (CMC) 91 % of control | dose: 12.5 mg/kg/injection, schedule: Q01DX009 (ip), vehicle: Klucel (hydroxypropylcellulose) (HPC) 103 % of control | dose: 20.0 mg/kg/injection, schedule: Q01DX001 (ip), vehicle: carboxymethylcellulose (CMC) 89 % of control | dose: 25.0 mg/kg/injection, schedule: Q01DX009 (ip), vehicle: Klucel (hydroxypropylcellulose) (HPC) 100 % of control | [15] 106 % of control | dose: 40.0 mg/kg/injection, schedule: Q01DX001 (ip), vehicle: carboxymethylcellulose (CMC) 89 % of control | dose: 50.0 mg/kg/injection, schedule: Q01DX009 (ip), vehicle: Klucel (hydroxypropylcellulose) (HPC) 92 % of control | [16] 100 % of control | dose: 80.0 mg/kg/injection, schedule: Q01DX001 (ip), vehicle: carboxymethylcellulose (CMC) 96 % of control | [5] 92 % of control

CC(C)(Oc1cccc2ccccc12)C(=O)O
inactive: [17] 100 % of control | [18] 105 % of control | [19] 93 % of control
